{"source": "paper PMC6770581", "about": "“New Thalidomide-Resembling Dicarboximides Target ABC50 Protein and Show Antileukemic and Immunomodulatory Activities” (Biomolecules, 2019)", "test_system": "caspase 3 and PARP", "assay": "Western blot of caspase 3 and PARP cleavage in K562 cells", "type": "cell-based, human", "settings": "24 h", "experimental": "0.15 × 10^6 cells/ml were seeded on a 6-well plate (Nunclon, Thermo Fisher Scientific, Waltham, MA, USA). Following 24 hour preincubation the cells were treated with either the compound or 1% DMSO (control) for 24 or 48 hours. Cells were lysed using RIPA Buffer (Sigma) supplemented with Complete Protease Inhibitor Coctail (Roche, Basel, Switzerland) and PhosSTOP (Roche). Samples containing 20 µg protein were resuspended in 4× Laemmli’s Buffer (Biorad, Hercules, CA, USA), separated on 10% acrylamide gel (TGX Stain-Free Gel Kit, Biorad) and blotted onto nitrocellulose membrane (Panreac Applichem ITW, Darmstadt, Germany). Blots were blocked in 5% non-fat dry milk in TBST (1% (v/v) Tween-20, 140 mM NaCl, 25 mM Trizma, pH = 7.4 adjusted with HCl) for 1 h and incubated overnight with the antibodies against caspase-9 (9502), caspase-8 (9746), caspase-3 (9662), caspase-3 cleaved (9661) and β-actin (3700), all from Cell Signaling Technology, and antibody against poly(ADP-ribose)polymerase (PARP, 551025) from BD Pharmingen. Membranes were incubated with appropriate species-specific secondary antibodies conjugated with HRP (Cell Signaling Technology, Danvers, MA, USA). Blots were developed using ECL substrate (Biorad, Hercules, CA, USA). The experiment was performed in at least three independent biological replicates."}
{"molecule": "CCC12C(=O)C(CC)(C(c3ccccc3)=C1c1ccccc1)C1C(=O)N(CC(O)CNC(C)C)C(=O)C12", "note": "(stereo not shown) [Compound 5]", "values": [{"measurement": "caspase 3 and PARP cleavage (Western blot)", "result": "presence of cleavage fragments of PARP (85 kDa) and caspase 3 (17 kDa)"}]}
